Patent US20030124585A1, “Type II gonadotropin-releasing hormone receptor and polynucleotides encoding therefor” (Medical Research Council, priority 2000, published 2003)
Where two headings read alike, the source gives them in different places. Square brackets hold non-standard residues; d marks the D form. Peptide text beside a SMILES is read from it. pGlu = O=C1CC[C@@H](C(=O)O)N1

What was measured:
[1] = target: T1, marmoset Type II GnRH receptor (Callithrix jacchus, UniProt Q95MG6); assay: Phospho-MAP kinase assay, p38α activation in transfected COS-7 cells; format: cell-based; settings: 100 nM, FIG. 8c
T1 construct: Full length marmoset Type II GnRH receptor was produced by PCR; expressed in transfected cells; host or cells: COS-7 cells, transient transfection (Superfect), plasmid pcDNA3.1+
T1 sequence (Q95MG6 1-380): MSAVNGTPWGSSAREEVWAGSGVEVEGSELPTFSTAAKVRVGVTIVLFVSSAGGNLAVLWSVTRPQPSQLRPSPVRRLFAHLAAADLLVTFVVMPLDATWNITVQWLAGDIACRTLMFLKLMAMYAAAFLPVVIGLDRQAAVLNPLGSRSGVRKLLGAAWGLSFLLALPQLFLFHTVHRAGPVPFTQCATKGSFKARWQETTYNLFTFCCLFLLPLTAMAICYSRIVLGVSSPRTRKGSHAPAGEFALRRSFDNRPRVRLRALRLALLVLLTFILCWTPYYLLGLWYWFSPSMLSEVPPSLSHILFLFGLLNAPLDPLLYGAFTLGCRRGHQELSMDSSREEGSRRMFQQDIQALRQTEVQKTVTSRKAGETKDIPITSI
Procedure: (§1) Cell culture and transfection. COS-7 cells were cultured as previously described (20, 21). Transient transfections of COS-7 cells with human Type I GnRH receptor or marmoset Type II GnRH receptor, along with myc-tagged ERK2, JNK and p38α constructs were performed using Superfect (Qiagen) according to the manufacturer's protocol. All assays described were performed 48 h post transfection.
(§2) Phospho-MAP kinase assay. […] After ligand stimulation, COS-7 cells were prepared for immunoprecipitation (23). Co-transfected myc-tagged MAP kinase constructs were immunoprecipitated from cell lysates by overnight incubation with myc-agarose slurry (Santa Cruz), washed, an equal volume of 2×Laemmli sample buffer added, resolved by SDS-PAGE and electrotransferred to PVDF membrane (NEN Life Sciences). Activated MAP kinase was detected using anti-phospho-ERK/JNK/p38a-kinase specific antisera (New England Biolabs), visualised by enzyme-linked chemifluorescence (Amersham-Pharmacia) and quantified using a phosphorimager. The degree of phosphorylated MAP kinase was normalised to the amount of unphosphorylated MAP kinase detected with specific antisera.

[2] = system: Type I receptor; settings: cited from earlier work
[3] = system: Marmoset Type II GnRH-R; assay: Receptor binding, competition with 125I-[His5,D-Tyr6]GnRH, transfected COS-7 cells; settings: Type II versus Type I receptor; for Selectivity of the Type II receptor for the ligand (in words): binding, COS-7 cells
Procedure: as §1
(§3) Receptor binding and inositol phosphate production.

[4] = target: T2, Marmoset Type II GnRH-R (Callithrix jacchus, UniProt Q95MG6); assay: as above; settings: for IC50: s.e.m.
T2 construct: Full length marmoset Type II GnRH receptor was produced by PCR; expressed in transfected cells; host or cells: COS-7 cells, transient transfection (Superfect), plasmid pcDNA3.1+
T2 sequence (Q95MG6 1-380): T1 sequence (Q95MG6 1-380)
Procedure: as §1, §3

[5] = target: T3, human Type I GnRH receptor (Homo sapiens, UniProt P30968); assay: as above; settings: for IC50: Table 1, s.e.m., n=3-6, read-out: Ligand binding (IC50) Human Type I
T3 construct: expressed in transfected cells; host or cells: COS-7 cells, transient transfection (Superfect)
T3 sequence (P30968 1-328): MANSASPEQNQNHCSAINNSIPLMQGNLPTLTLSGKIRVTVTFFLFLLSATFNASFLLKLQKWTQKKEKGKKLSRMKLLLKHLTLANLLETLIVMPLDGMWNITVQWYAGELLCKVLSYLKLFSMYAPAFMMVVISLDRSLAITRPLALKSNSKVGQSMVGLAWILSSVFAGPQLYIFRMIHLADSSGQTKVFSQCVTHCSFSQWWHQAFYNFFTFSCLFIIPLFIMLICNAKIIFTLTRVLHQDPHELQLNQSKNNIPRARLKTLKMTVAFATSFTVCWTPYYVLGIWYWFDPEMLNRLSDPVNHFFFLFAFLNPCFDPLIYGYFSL
Procedure: as §1, §3

[6] = target: T2, Marmoset Type II GnRH-R; assay: Total inositol phosphate production in transfected COS-7 cells; format: cell-based; settings: for EC50: s.e.m.
Procedure: as §1, §3

[7] = target: T3, human Type I GnRH receptor; assay: as above; format: cell-based; settings: for EC50: Table 1, s.e.m., n=3-6, read-out: InsP production (EC50) Human Type I
Procedure: as §1, §3

[8] = system: FSH and LH secretion; assay: Stimulation of LH and FSH in sheep (Soay ram model); format: in vivo; settings: 10 μg dose, intravenous bolus, n=8
Procedure: Stimulation of LH and FSH in sheep. […] The same animals (n=8) were used on the two occasions. The GnRHs were administered at doses of 250 ng/ram and 10 μg/ram in a cross-over design with a week between treatments to permit full recovery. The peptides were dissolved in 1 ml of 0.9% saline and given as an intravenous bolus. Blood samples were collected every 10 min, from 20 min before, until 2 h after the treatments and assayed by specific radioimmunoassays (24). The FSH and LH responses to the GnRH agonists were calculated as delta responses (2 h mean hormone concentration post treatment minus 20 min mean pre-treatment hormone concentration). […] This was assessed for each animal and then for the group (mean±SEM, n=8), under both LD and SD.

[9] = target: T3, human Type I GnRH receptor; assay: Phospho-MAP kinase assay, ERK2 activation in transfected COS-7 cells; format: cell-based; settings: FIG. 8a
Procedure: as §1, §2

[10] = FIG. 4, COS-7 cells, n=2, read-out: IC50, heterologous competition binding of 125I-[His5,D-Tyr6]GnRH
[11] = Table 1, n=3-6, read-out: Ligand binding (IC50) Marmoset Type II
[12] = FIG. 5, COS-7 cells, n=2, read-out: EC50, total inositol phosphate production
[13] = Table 1, n=3-6, read-out: InsP production (EC50) Marmoset Type II

| Compound | Activation of p38α MAP kinase (in words) [1] | Affinity and potency as percent of mammalian GnRH I at the Type I receptor [2] | Affinity for the Type II receptor relative to the Type I receptor [3] | Selectivity of the Type II receptor for the ligand (in words) [3] | Receptor binding activity relative to mammalian GnRH I at the Type II receptor ([4]; COS-7 cells) | IC50 [4, 10] | IC50 [4, 11] | Receptor binding activity as percent of mammalian GnRH I at the Type I receptor ([5]; COS-7 cells) | Inositol phosphate production activity relative to mammalian GnRH I at the Type II receptor ([6]; COS-7 cells) | EC50 [6, 12] | EC50 [6, 13] | Inositol phosphate production activity as percent of mammalian GnRH I at the Type I receptor ([7]; COS-7 cells) | Mean ratio of FSH to LH secretion relative to that induced by mammalian GnRH I ([8]; sexually active rams) | Mean ratio of FSH to LH secretion relative to that induced by mammalian GnRH I ([8]; sexually quiescent rams) | Activation of ERK2 (in words) [9] | IC50 [5] | EC50 [7] |
| --- | --- | --- | --- | --- | --- | --- | --- | --- | --- | --- | --- | --- | --- | --- | --- | --- | --- |
| NC(=O)CNC(=O)[C@@H]1CCCN1C(=O)[C@H](Cc1ccc(O)cc1)NC(=O)[C@H](Cc1c[nH]c2ccccc12)NC(=O)CNC(=O)[C@H](Cc1c[nH]cn1)NC(=O)[C@H](CO)NC(=O)[C@H](Cc1c[nH]c2ccccc12)NC(=O)[C@H](Cc1c[nH]cn1)NC(=O)[C@@H]1CCC(=O)N1 [GnRH II, [His^5,Trp^7,Tyr^8]GnRH I] ([pGlu]HWSHGWYPG-NH2; C-terminus assumed) | selective and time-dependent activation | ≤ 20% | 24 fold | high selectivity | 40 fold | 1.3 ± 0.2 nM | 1.07 ± 0.04 nM | 10% | 90 fold | 0.46 ± 0.12 nM | 0.45 ± 0.05 nM | 9% | 2.14±0.29 times | 2.02±0.34 times | – | – | – |
| CC(C)C[C@H](NC(=O)CNC(=O)[C@H](Cc1ccc(O)cc1)NC(=O)[C@H](CO)NC(=O)[C@H](Cc1c[nH]c2ccccc12)NC(=O)[C@H](Cc1c[nH]cn1)NC(=O)[C@@H]1CCC(=O)N1)C(=O)N[C@@H](CCCNC(=N)N)C(=O)N1CCC[C@H]1C(=O)NCC(N)=O [GnRH I] | – | – | – | – | – | 51.7 ± 1.9 nM | 42.6 ± 3.19 nM | – | – | 33.2 ± 6.3 nM | 40.5 ± 4.43 nM | – | – | – | considerably more potent than GnRH II | – | – |
| N=C(N)NCCC[C@@H](NC(=O)[C@H](Cc1c[nH]cn1)NC(=O)[C@H](CO)NC(=O)[C@H](Cc1c[nH]c2ccccc12)NC(=O)[C@H](Cc1c[nH]cn1)NC(=O)[C@@H]1CCC(=O)N1)C(=O)N[C@@H](Cc1c[nH]c2ccccc12)C(=O)N[C@@H](Cc1ccc(O)cc1)C(=O)N1CCC[C@H]1C(=O)NCC(N)=O [[D-Arg^6] GnRH II, [D-Arg^6]GnRH II] ([pGlu]HWSH[dR]WYPG-NH2; C-terminus assumed) | – | – | – | more selective | – | – | 3.34 ± 0.06 nM | – | – | 1.1 ± 0.23 nM | 2.39 ± 0.64 nM | – | – | – | – | 11.9 ± 0.35 nM | 3.8 ± 0.71 nM |
| CC(C)C[C@H](NC(=O)[C@H](Cc1c[nH]c2ccccc12)NC(=O)CNC(=O)[C@H](Cc1ccc(O)cc1)NC(=O)[C@H](CO)NC(=O)[C@H](Cc1c[nH]c2ccccc12)NC(=O)[C@H](Cc1c[nH]cn1)NC(=O)[C@@H]1CCC(=O)N1)C(=O)N1CCC[C@H]1C(=O)NCC(N)=O [sGnRH, [Trp^7,Leu^8]GnRH I] ([pGlu]HWSYGWLPG-NH2; C-terminus assumed) | – | – | – | more selective | – | 9.8 ± 1.4 nM | 9.48 ± 2.17 nM | – | – | 8.7 ± 0.5 nM | 5.99 ± 0.91 nM | – | – | – | – | 244 ± 23.6 nM | 9.62 ± 3.5 nM |
